From patent US10544147B2, “Purine inhibitors of human phosphatidylinositol 3-kinase delta” (MERCK SHARP & DOHME CORP., priority 2016, dated 2020)

What was measured:
PI3Kdelta = PI3Kdelta (Homo sapiens (Human), UniProt O00329); test: HTRF PI3K biochemical assay, delta isoform; settings: 0.3 nM enzyme, 100 uM ATP, 50 uM PIP2; form screened (neutral or TFA salt)
Protocol: HTRF PI3K Biochemical Assay to Measure Intrinsic Potency of Compound Inhibitors
This loss of signal is nonlinear with respect to both increasing product and time. This non-linear detection will impact accuracy of IC50 calculations; therefore, there is a need for a correction factor to obtain more accurate IC50 values. This correction is derived from a PIP3 standard curve run in a separate assay plate. All data were calculated using the ratio of acceptor (APC) to donor (Europium) fluorescence in each well of the assay plate. […] An IC50 was then calculated fitting the % inhibition data to the equation: % inhibition=min+(Max−min)/1+([inhibitor]/IC50)^n) where min is the % inhibition with inhibitor, max is the signal in DMSO control, and n is the Hill slope.
The biological data was collected using the methodology described above.

PI3Kalpha = PI3Kalpha (Homo sapiens (Human), UniProt P42336); test: HTRF PI3K biochemical assay, alpha isoform (selectivity versus delta); settings: ratio PI3K-alpha IC50 value/PI3K-delta IC50 value
PI3Kalpha, sequence (P42336 whole entry, canonical isoform): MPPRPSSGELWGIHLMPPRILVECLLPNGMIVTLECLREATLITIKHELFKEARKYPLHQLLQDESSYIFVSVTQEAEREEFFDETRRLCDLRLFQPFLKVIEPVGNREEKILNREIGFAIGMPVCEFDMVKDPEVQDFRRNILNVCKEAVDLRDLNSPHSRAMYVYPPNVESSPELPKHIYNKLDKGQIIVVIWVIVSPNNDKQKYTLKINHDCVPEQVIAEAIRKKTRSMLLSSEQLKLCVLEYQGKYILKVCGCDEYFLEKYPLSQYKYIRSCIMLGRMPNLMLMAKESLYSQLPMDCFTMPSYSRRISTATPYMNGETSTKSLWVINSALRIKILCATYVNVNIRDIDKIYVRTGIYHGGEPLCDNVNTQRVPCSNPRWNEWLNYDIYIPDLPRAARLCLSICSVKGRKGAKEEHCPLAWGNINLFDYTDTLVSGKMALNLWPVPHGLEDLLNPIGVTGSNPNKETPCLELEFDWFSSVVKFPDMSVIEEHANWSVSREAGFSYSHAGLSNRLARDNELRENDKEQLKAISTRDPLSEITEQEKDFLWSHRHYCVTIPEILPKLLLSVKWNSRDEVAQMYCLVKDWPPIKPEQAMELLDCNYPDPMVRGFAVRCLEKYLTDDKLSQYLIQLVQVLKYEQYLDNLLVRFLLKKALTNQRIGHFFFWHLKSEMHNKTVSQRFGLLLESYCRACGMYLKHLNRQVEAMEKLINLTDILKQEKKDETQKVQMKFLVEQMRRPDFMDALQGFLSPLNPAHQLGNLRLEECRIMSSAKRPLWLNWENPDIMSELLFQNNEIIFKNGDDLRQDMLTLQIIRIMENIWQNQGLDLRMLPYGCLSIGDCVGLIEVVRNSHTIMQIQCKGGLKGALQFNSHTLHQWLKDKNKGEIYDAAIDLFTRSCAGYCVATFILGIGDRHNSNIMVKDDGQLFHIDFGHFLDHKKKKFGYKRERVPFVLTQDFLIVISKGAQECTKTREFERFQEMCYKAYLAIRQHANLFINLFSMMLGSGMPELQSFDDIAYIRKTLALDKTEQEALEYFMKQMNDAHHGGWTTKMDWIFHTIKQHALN
PI3Kalpha, sequence (P27986 whole entry partner, canonical isoform): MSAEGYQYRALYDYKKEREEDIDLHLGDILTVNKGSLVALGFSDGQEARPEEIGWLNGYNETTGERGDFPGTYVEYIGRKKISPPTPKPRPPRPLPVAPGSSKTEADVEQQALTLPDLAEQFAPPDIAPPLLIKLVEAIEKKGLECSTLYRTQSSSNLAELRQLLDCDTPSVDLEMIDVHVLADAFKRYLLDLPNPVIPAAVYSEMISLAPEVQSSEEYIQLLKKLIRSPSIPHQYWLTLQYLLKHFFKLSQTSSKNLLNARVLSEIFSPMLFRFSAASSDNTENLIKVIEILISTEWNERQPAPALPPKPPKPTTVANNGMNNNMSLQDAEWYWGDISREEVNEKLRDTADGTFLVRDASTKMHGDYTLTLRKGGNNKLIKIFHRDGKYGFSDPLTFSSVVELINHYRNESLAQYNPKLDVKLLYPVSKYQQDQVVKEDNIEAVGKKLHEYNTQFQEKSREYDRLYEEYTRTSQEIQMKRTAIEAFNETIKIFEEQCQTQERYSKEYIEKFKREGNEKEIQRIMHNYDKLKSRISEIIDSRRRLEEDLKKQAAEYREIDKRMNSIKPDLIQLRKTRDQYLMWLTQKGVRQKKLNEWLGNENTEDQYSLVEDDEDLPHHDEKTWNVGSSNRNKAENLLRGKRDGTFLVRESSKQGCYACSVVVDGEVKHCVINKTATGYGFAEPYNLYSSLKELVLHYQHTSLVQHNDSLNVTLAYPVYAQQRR

PI3Kdelta, sequence (O00329 whole entry, canonical isoform): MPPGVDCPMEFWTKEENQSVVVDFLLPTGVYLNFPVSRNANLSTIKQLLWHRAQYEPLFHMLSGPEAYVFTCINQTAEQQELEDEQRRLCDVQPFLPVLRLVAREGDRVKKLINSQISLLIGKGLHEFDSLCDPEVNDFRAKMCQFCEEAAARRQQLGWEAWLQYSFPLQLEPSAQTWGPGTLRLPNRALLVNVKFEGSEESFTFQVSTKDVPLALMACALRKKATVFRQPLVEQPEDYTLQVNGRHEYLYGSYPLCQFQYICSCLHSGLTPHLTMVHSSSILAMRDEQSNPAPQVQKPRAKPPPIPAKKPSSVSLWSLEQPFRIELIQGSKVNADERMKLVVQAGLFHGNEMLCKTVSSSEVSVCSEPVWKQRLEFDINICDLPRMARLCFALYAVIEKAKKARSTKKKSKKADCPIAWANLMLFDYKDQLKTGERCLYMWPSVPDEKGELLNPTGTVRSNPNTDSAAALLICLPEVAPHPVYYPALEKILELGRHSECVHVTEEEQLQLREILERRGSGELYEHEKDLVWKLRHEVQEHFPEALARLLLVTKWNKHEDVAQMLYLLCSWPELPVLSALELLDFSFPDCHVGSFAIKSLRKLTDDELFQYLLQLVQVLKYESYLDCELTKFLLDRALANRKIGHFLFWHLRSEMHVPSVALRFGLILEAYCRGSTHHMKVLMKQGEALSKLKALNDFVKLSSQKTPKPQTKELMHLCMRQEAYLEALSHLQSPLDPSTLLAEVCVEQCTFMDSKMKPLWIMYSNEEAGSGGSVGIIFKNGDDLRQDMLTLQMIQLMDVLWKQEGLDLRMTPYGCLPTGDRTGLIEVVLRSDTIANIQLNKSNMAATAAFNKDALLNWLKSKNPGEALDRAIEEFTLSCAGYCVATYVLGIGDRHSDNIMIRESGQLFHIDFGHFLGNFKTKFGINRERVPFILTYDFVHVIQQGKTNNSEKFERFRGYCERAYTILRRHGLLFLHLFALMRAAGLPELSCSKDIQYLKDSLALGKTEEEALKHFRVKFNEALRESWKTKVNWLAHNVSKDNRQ
PI3Kdelta, sequence (P27986 whole entry partner, canonical isoform): as the sequence (P27986 whole entry partner, canonical isoform) above

Compound | IC50 (PI3Kdelta) [nM] | Relative Selectivity versus PI3Kalpha (PI3Kalpha)
CCn1c(C(F)F)nc2c(-c3ccc4c(c3)C(C)(Cc3ccccc3)C(=O)N4)ncnc21 (single isomer, unassigned) [Compound 1-23, (R or S)-benzyl-5-(8-(difluoromethyl)-9-ethyl-9H-purin-6-yl)-3-methylindolin-2-one] | 27 | >10
CCn1c(C(F)F)nc2c(-c3ccc4c(c3)C(C)(Cc3ccccc3)C(=O)N4)ncnc21 (single isomer, unassigned) [Compound 1-24, (R or S)-benzyl-5-(8-(difluoromethyl)-9-ethyl-9H-purin-6-yl)-3-methylindolin-2-one] | 658 | >10
CCn1ncc(-c2nc3c(-c4ccc5c(c4)C(C)(CC4CC4)C(=O)N5)ncnc3n2CC)c1C (single isomer, unassigned) [Compound 1-25, 3-(Cyclopropylmethyl)-5-(9-ethyl-8-(1-ethyl-5-methyl-1H-pyrazol-4-yl)-9H-purin-6-yl)-3-methylindolin-2-one] | 4 | >10
Cc1ncc(-c2nc3c(-c4cnc5c(c4)C(C)(CC(C)C)C(=O)N5)ncnc3n2C)cn1 (single isomer, unassigned) [Compound 1-26, (R or S)-3-isobutyl-3-methyl-5-(9-methyl-8-(2-methylpyrimidin-5-yl)-9H-purin-6-yl)-1,3-dihydro-2H-pyrrolo[2,3-b]pyridin-2-one] | 50 | >10
Cc1ncc(-c2nc3c(-c4cnc5c(c4)C(C)(CC(C)C)C(=O)N5)ncnc3n2C)cn1 (single isomer, unassigned) [Compound 1-27, (R or S)-3-isobutyl-3-methyl-5-(9-methyl-8-(2-methylpyrimidin-5-yl)-9H-purin-6-yl)-1,3-dihydro-2H-pyrrolo[2,3-b]pyridin-2-one] | 5 | >10
CCn1c(-c2cnc(C)nc2)nc2c(-c3ccc4c(c3)C(C)(C3CCOCC3)C(=O)N4)ncnc21 (single isomer, unassigned) [Compound 1-34, 5-(9-Ethyl-8-(2-methylpyrimidin-5-yl)-9H-purin-6-yl)-3-methyl-3-(tetrahydro-2H-pyran-4-yl)indolin-2-one] | 48 | 8
CCn1c(-c2cnc(C)nc2)nc2c(-c3ccc4c(c3)C(C)(C3CCOCC3)C(=O)N4)ncnc21 (single isomer, unassigned) [Compound 1-35, 5-(9-Ethyl-8-(2-methylpyrimidin-5-yl)-9H-purin-6-yl)-3-methyl-3-(tetrahydro-2H-pyran-4-yl)indolin-2-one] | 5 | >10
CCn1c(-c2cnc(C)nc2)nc2c(-c3ccc4c(c3)C(C)(CC)C(=O)N4)ncnc21 (single isomer, unassigned) [Compound 1-38, (R or S)-3-ethyl-5-(9-ethyl-8-(2-methylpyrimidin-5-yl)-9H-purin-6-yl)-3-methylindolin-2-one] | 80 | >10
CCn1c(-c2cnc(C)nc2)nc2c(-c3ccc4c(c3)C(C)(CC)C(=O)N4)ncnc21 (single isomer, unassigned) [Compound 1-39, (R or S)-3-ethyl-5-(9-ethyl-8-(2-methylpyrimidin-5-yl)-9H-purin-6-yl)-3-methylindolin-2-one] | 85 | >10
CCn1c(-c2cnc(C)nc2)nc2c(-c3ccc4c(c3)C(C)(CC(C)(C)O)C(=O)N4)ncnc21 (single isomer, unassigned) [Compound 1-40, 5-(9-Ethyl-8-(2-methylpyrimidin-5-yl)-9H-purin-6-yl)-3-(2-hydroxy-2-methylpropyl)-3-methylindolin-2-one] | 142 | >10
CCn1c(-c2cnc(C)nc2)nc2c(-c3ccc4c(c3)C(C)(CC(C)(C)O)C(=O)N4)ncnc21 (single isomer, unassigned) [Compound 1-41, 5-(9-Ethyl-8-(2-methylpyrimidin-5-yl)-9H-purin-6-yl)-3-(2-hydroxy-2-methylpropyl)-3-methylindolin-2-one] | 23 | >10

Results, then the compound that gave them:

IC50 (PI3Kdelta) [nM] | Relative Selectivity versus PI3Kalpha (PI3Kalpha) | Compound
145 | 4 | CCn1c(-c2cnc(C)nc2)nc2c(-c3ccc4c(c3)C(C)(N3C[C@@H](C)O[C@@H](C)C3)C(=O)N4)ncnc21 (single isomer, unassigned) [Compound 2-3, (R or S)-3-[(cis)-2,6-dimethylmorpholin-4-yl]-5-[9-ethyl-8-(2-methylpyrimidin-5-yl)-9H-purin-6-yl]-3-methyl-1,3-dihydro-2H-indol-2-one]
5 | >10 | CCn1c(-c2cnc(C)nc2)nc2c(-c3ccc4c(c3)C(C)(N3C[C@@H](C)O[C@@H](C)C3)C(=O)N4)ncnc21 (single isomer, unassigned) [Compound 2-4, (R or S)-3-[(cis)-2,6-dimethylmorpholin-4-yl]-5-[9-ethyl-8-(2-methylpyrimidin-5-yl)-9H-purin-6-yl]-3-methyl-1,3-dihydro-2H-indol-2-one]
73 | >10 | CCn1c(-c2cnc(C)nc2)nc2c(-c3ccc4c(c3)C(C)(N3CC(C)(C#N)C3)C(=O)N4)ncnc21 (single isomer, unassigned) [Compound 2-5, (R or S)-1-{5-[9-ethyl-8-(2-methylpyrimidin-5-yl)-9H-purin-6-yl]-3-methyl-2-oxo-2,3-dihydro-1H-indol-3-yl}-3-methylazetidine-3-carbonitrile]
3 | >10 | CCn1c(-c2cnc(C)nc2)nc2c(-c3ccc4c(c3)C(C)(N3CC(C)(C#N)C3)C(=O)N4)ncnc21 (single isomer, unassigned) [Compound 2-6, (R or S)-1-{5-[9-ethyl-8-(2-methylpyrimidin-5-yl)-9H-purin-6-yl]-3-methyl-2-oxo-2,3-dihydro-1H-indol-3-yl}-3-methylazetidine-3-carbonitrile]
8 | >10 | CCn1c(-c2cnc(C)nc2)nc2c(-c3ccc4c(c3)C(C)(N3CC5(CCO5)C3)C(=O)N4)ncnc21 (single isomer, unassigned) [Compound 2-7, (R or S)-5-[9-ethyl-8-(2-methylpyrimidin-5-yl)-9H-purin-6-yl]-3-methyl-3-(1-oxa-6-azaspiro[3.3]hept-6-yl)-1,3-dihydro-2H-indol-2-one]
129 | >10 | CCn1c(-c2cnc(C)nc2)nc2c(-c3ccc4c(c3)C(C)(N3CC5(CCO5)C3)C(=O)N4)ncnc21 (single isomer, unassigned) [Compound 2-8, (R or S)-5-[9-ethyl-8-(2-methylpyrimidin-5-yl)-9H-purin-6-yl]-3-methyl-3-(1-oxa-6-azaspiro[3.3]hept-6-yl)-1,3-dihydro-2H-indol-2-one]
5 | >10 | CCn1c(-c2cnc(C)nc2)nc2c(-c3ccc4c(c3)C(C)(N[C@@H](C)C3CC3)C(=O)N4)ncnc21 (single isomer, unassigned) [Compound 2-12, 3-{[(1S)-1-cyclopropylethyl]amino}-5-[9-ethyl-8-(2-methylpyrimidin-5-yl)-9H-purin-6-yl]-3(R or S)-methyl-1,3-dihydro-2H-indol-2-one]
32 | >10 | CCn1c(-c2cnc(C)nc2)nc2c(-c3ccc4c(c3)C(C)(N[C@@H](C)C3CC3)C(=O)N4)ncnc21 (single isomer, unassigned) [Compound 2-13, 3-{[(1S)-1-cyclopropylethyl]amino}-5-[9-ethyl-8-(2-methylpyrimidin-5-yl)-9H-purin-6-yl]-3(R or S)-methyl-1,3-dihydro-2H-indol-2-one]
479 | >10 | CCn1c(-c2cnc(C)nc2)nc2c(-c3ccc4c(c3)C(C)(NC(C)C)C(=O)N4)ncnc21 (single isomer, unassigned) [Compound 2-31, (R or S)-5-[9-ethyl-8-(2-methylpyrimidin-5-yl)-9H-purin-6-yl]-3-methyl-3-[(1-methylethyl)amino]-1,3-dihydro-2H-indol-2-one]
27 | >10 | CCn1c(-c2cnc(C)nc2)nc2c(-c3ccc4c(c3)C(C)(NC(C)C)C(=O)N4)ncnc21 (single isomer, unassigned) [Compound 2-32, (R or S)-5-[9-ethyl-8-(2-methylpyrimidin-5-yl)-9H-purin-6-yl]-3-methyl-3-[(1-methylethyl)amino]-1,3-dihydro-2H-indol-2-one]
2750 | >4 | CCn1c(-c2cnc(C)nc2)nc2c(-c3ccc4c(c3)C(C)(NCC3CC3)C(=O)N4)ncnc21 (single isomer, unassigned) [Compound 2-33, (R or S)-3-[(cyclopropylmethyl)amino]-5-[9-ethyl-8-(2-methylpyrimidin-5-yl)-9H-purin-6-yl]-3-methyl-1,3-dihydro-2H-indol-2-one]
29 | >10 | CCn1c(-c2cnc(C)nc2)nc2c(-c3ccc4c(c3)C(C)(NCC3CC3)C(=O)N4)ncnc21 (single isomer, unassigned) [Compound 2-34, (R or S)-3-[(cyclopropylmethyl)amino]-5-[9-ethyl-8-(2-methylpyrimidin-5-yl)-9H-purin-6-yl]-3-methyl-1,3-dihydro-2H-indol-2-one]
